Results on 19 compounds are retold here after US20250059174A1, “Pharmaceutical Compounds and Compositions as C-Kit Kinase Inhibitors” (Enanta Pharmaceuticals, Inc., priority 2023, published 2025).

A value given as a limit tells only on which side of the number the result lay.

Experiment [1] addresses Recombinant human c-KIT kinase (Homo sapiens (Human), UniProt P10721). As to the kind of experiment: c-KIT kinase chemiluminescence assay (ADP-Glo). In kind it is biochemical. The settings on record: ATP 50 μM. Summed up:
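ADP formed by c-KIT on polyEY over 2 h at RT (after 30 min enzyme preincubation; Tris pH 7.5, MgCl2, BSA, DTT buffer) was detected by ADP-Glo luminescence. IC50 and Hill slope were fitted to control-normalized activity across compound concentrations.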

Experiment [2] concerns M-07e cells. As to the kind of experiment: M-07e cellular assay (SCF-mediated cell proliferation). In kind it is cell-based. The settings on record: Homo sapiens, 72 hours, CellTiter Glo. Summed up:
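EC50 values reflect inhibition of SCF-driven proliferation, with SCF at EC90 and a 72 h compound exposure, measured as CellTiter Glo luminescence. Growth is scaled between no-SCF (0%) and untreated (100%) wells.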

Recombinant human c-KIT kinase, sequence (P10721 26-976): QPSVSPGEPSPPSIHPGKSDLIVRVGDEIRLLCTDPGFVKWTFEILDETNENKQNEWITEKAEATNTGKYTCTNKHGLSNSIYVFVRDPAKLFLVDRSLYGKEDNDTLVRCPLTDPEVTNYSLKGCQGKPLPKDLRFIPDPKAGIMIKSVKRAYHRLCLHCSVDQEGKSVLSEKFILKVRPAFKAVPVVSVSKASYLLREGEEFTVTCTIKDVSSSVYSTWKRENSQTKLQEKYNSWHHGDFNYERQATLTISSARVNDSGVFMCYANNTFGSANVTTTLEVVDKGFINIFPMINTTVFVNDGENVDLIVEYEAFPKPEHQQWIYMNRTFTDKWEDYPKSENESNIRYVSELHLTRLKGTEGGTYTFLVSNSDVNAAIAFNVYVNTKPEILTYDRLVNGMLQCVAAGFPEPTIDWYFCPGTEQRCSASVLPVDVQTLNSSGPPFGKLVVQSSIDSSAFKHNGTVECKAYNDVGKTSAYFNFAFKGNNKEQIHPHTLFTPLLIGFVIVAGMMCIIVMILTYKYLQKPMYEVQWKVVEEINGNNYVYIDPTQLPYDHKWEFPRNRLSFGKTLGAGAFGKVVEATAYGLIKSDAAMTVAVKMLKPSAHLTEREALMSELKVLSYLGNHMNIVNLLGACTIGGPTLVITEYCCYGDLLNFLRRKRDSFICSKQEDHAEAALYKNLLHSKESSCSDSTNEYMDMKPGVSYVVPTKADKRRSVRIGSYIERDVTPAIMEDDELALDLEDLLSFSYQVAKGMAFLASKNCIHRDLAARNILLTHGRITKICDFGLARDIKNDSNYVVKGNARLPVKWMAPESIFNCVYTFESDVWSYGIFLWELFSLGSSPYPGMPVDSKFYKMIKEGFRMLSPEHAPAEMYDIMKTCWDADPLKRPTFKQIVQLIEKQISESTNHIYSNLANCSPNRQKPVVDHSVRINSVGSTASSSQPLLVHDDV

A word on the IC50: it is the midpoint of a concentration-inhibition curve. A word on the EC50: it is the midpoint of the concentration-response curve. The low end stands for higher potency in that assay, the high end for lower potency in that assay. In the case of `Cc1ccc(-c2noc([C@H]3C[C@@H]3F)n2)cc1NC(=O)c1cnn2ccc(-c3cnc(N(C)C)nc3)cc12` [Example 156], in experiment [1], the IC50 was less than 100 nM. In experiment [2], this compound had an EC50 of less than 100 nM.

On to `COCCn1cc(-c2ccc3c(C(=O)Nc4cc(-c5noc([C@H]6C[C@@H]6F)n5)ccc4C)cnn3c2)nn1` [Example 116], for which the IC50 in experiment [1] was less than 100 nM. Moreover, the EC50 in experiment [2] was less than 100 nM.

As to `Cc1ccc(-c2ccc(C3CC3)nc2)cc1NC(=O)c1cnn2ccc(N3CC4(COC4)C3)cc12` [Example 342], the IC50 in experiment [1] is less than 100 nM. The compound also came in with an EC50 in experiment [2] of less than 100 nM.

As for `Cc1ccc(-c2noc([C@H]3C[C@@H]3F)n2)cc1NC(=O)c1cnn2ccc(N3CCN(C(=O)C4CC4)[C@H](C)C3)cc12` [Example 241-5], the IC50 in experiment [1] was less than 100 nM. The EC50 in experiment [2] is less than 100 nM.

`Cc1ccc(-c2noc([C@H]3C[C@@H]3F)n2)cc1NC(=O)c1cnn2ccc(N3CCOCC3)cc12` [Example 241]: the concentration for half-maximal inhibition (IC50) in experiment [1] was less than 100 nM. The EC50 in experiment [2] was less than 100 nM.

In the case of `Cc1ccc(-c2noc([C@H]3C[C@@H]3F)n2)cc1NC(=O)c1cnc(-c2ccc3[nH]nc(C)c3c2)o1` [Example 308-21], the IC50 in experiment [1] is less than 100 nM. Besides, the EC50 in experiment [2] was less than 100 nM.

As to `Cc1ccc(-c2ncc3cccn3n2)cc1NC(=O)c1cnn2ccc(N3CC4(C3)CC(O)(C(F)F)C4)cc12` [Example 320], in experiment [1], the concentration for half-maximal inhibition (IC50) is less than 100 nM. This compound showed an EC50 in experiment [2] of less than 100 nM.

With `Cc1ccc(-c2nc3n(n2)CCCC3)cc1NC(=O)c1cnn2ccc(N3CC4(C3)CC(O)(C(F)F)C4)cc12` [Example 321], in experiment [1], the IC50 lay within 100 to 1000 nM. Also, in experiment [2], the EC50 was 100 to 1000 nM.

As for `Cc1ccc(-c2noc([C@H]3C[C@@H]3F)n2)cc1NC(=O)c1cnc(-c2ccncc2)o1` [Example 286], the IC50 in experiment [1] is greater than 1000 nM. In addition, in experiment [2], the EC50 was in the range of 100 to 1000 nM.

On to `Cc1ccc(-c2noc([C@H]3C[C@@H]3F)n2)cc1NC(=O)c1cnn2cccnc12` [Example 7], for which the IC50 in experiment [1] was greater than 1000 nM. This compound gave an EC50 in experiment [2] greater than 1000 nM.

Turning to `Cc1ncc(-c2noc([C@H]3C[C@@H]3F)n2)cc1NC(=O)c1cnc(-c2ccc3c(c2)CC(=O)N3)o1` [Example 308-12], in experiment [1], the IC50 is greater than 1000 nM. Besides, the EC50 in experiment [2] lay in the range of 100 to 1000 nM.

For `Cc1ccc(-c2cnc(N3CC(O)(C(F)(F)F)C3)nc2)cc1NC(=O)c1cnn2ccc(N3CC4(COC4)C3)cc12` [Example 354], in experiment [1], the IC50 was less than 100 nM. Also, the EC50 in experiment [2] was less than 100 nM.

Turning to `Cc1ccc(-c2noc([C@H]3C[C@@H]3F)n2)cc1NC(=O)c1cnc(-c2ccc3c(c2)O[C@H](C)CN3)o1` [Example 308-54], in experiment [1], the IC50 was 100 to 1000 nM. In experiment [2], this compound came in with an EC50 of 100 to 1000 nM.

As for `Cc1ccc(-c2noc([C@H]3C[C@@H]3F)n2)cc1NC(=O)c1cnn2ccc(Br)cc12` [Example 42, 5-bromo-N-(5-(5-((1R,2S)-2-fluorocyclopropyl)-1,2,4-oxadiazol-3-yl)-2-methylphenyl)pyrazolo[1,5-a]pyridine-3-carboxamide], the IC50 in experiment [1] was less than 100 nM. Moreover, the EC50 in experiment [2] fell in the range of 100 to 1000 nM.

As for `Cc1ccc(-c2noc([C@H]3C[C@@H]3F)n2)cc1NC(=O)c1cnn2cc(-c3cncnc3)ccc12` [Example 155], the IC50 in experiment [1] was 100 to 1000 nM. In addition, in experiment [2], the EC50 lay within 100 to 1000 nM.

`O=C(Nc1cc(-c2noc([C@H]3C[C@@H](C(F)(F)F)C3)n2)ccc1Cl)c1cnn2ccc(N3CC4(C3)CC(O)(C(F)F)C4)cc12` [Example 281-27]: the IC50 in experiment [1] is less than 100 nM. Also, in experiment [2], the EC50 is less than 100 nM.

In the case of `COC(=O)N1CC2(CC(c3nc(-c4ccc(C)c(NC(=O)c5cnn6ccc(N7CC8(COC8)C7)cc56)c4)no3)C2)C1` [Example 281-133], in experiment [1], the IC50 fell in the range of 100 to 1000 nM. In experiment [2], this compound displayed an EC50 of 100 to 1000 nM.

Consider `Cc1ccc(-c2noc([C@H]3C[C@@H]3F)n2)cc1NC(=O)c1cnn2cc(-c3cn(C4CC(F)(F)C4)nn3)ccc12` [Example 115], for which the IC50 in experiment [1] was less than 100 nM. In addition, the EC50 in experiment [2] was less than 100 nM.

Take `Cc1ncc(-c2noc([C@@H]3CN(CC(F)(F)F)[C@H]3C)n2)cc1NC(=O)c1cnn2ccc(N3CC4(C3)CC(O)(C(F)F)C4)cc12` [Example 281-12]: the IC50 in experiment [1] was less than 100 nM. In addition, the EC50 in experiment [2] was in the range of 100 to 1000 nM.
